Source: patent US20180289009A1 (Synexis LLC, priority 2015, published 2018)
“And” between values parts separate entries of the source, which are not always exact repeats. Equal values may be shown once. Read-outs that look alike come from different tables or passages of the source.

How the values were obtained:
[1] = tested on: mold spoilage on fresh strawberries; conditions: DHP gas 0.1-0.4 ppm; 5 days; 73-78° F.; humidity 40-65%
Description: Experiments are conducted in a 1584 cubic foot test room. The temperature of test room is maintained between 73° F. and 78° F., and the humidity of the ambient air is between 40% and 65%. […] After the 5-day incubation period, the strawberries are evaluated for the presence of mold spoilage.

H1N1 virus = conditions: DHP gas 0.6 ppm, 1.12 × 10^6 per inch^2
MS2 bacteriophage = conditions: DHP gas 0.6 ppm; 1.25 × 10^3 per inch^2
Feline calicivirus = conditions: DHP gas 0.6 ppm; ~1 × 10^8 per inch^2
Streptococcus pyogenes = conditions: DHP gas 0.6 ppm; 5 × 10^4 per inch^2
C. difficile (spores) = conditions: DHP gas 0.5-1.0 ppm, 3.78 × 10^6 per inch^2
[2] = tested on: Aspergillus Niger (vegetative); conditions: vegetative form; DHP gas 0.3 ppm; 2.2 × 10^4 per inch^2
Enterococcus faecalis = conditions: DHP gas 0.5-1.0 ppm
[3] = tested on: Geobacillus stearothermophilus spores
[4] = Log2 spore strip, 72 hours exposure to DHP gas at about 0.3 ppm
[5] = Log 2 spore strip, 144 hours exposure to DHP gas at about 0.3 ppm
[6] = Log 2 spore strip, 216 hours exposure to DHP gas at about 0.3 ppm
[7] = Log2 spore strip, 288 hours exposure to DHP gas at about 0.3 ppm
[8] = Log3 spore strip, 40 hours exposure to DHP gas at about 0.3 ppm
[9] = Log3 spore strip, 47.75 hours exposure to DHP gas at about 0.3 ppm
[10] = Log3 spore strip, 60.2 hours exposure to DHP gas at about 0.3 ppm
[11] = Log3 spore strip, 67.5 hours exposure to DHP gas at about 0.3 ppm
[12] = Log3 spore strip, 100 hours exposure to DHP gas at about 0.3 ppm
[13] = Log 3 spore strip, 144 hours exposure to DHP gas at about 0.3 ppm
[14] = Log 3 spore strip, 216 hours exposure to DHP gas at about 0.3 ppm
[15] = Log4 spore strip, 121.4 hours exposure to DHP gas at about 0.3 ppm
[16] = Log4 spore strip, 192 hours exposure to DHP gas at about 0.3 ppm
[17] = Log 4 spore strip, 216 hours exposure to DHP gas at about 0.3 ppm
[18] = Log4 spore strip, 223.5 hours exposure to DHP gas at about 0.3 ppm
[19] = Log4 spore strip, 288 hours exposure to DHP gas at about 0.3 ppm

SMILES: OO [DHP gas, hydrogen peroxide]
- Mold spoilage after 5-day incubation [1]: no signs of mold spoilage
- Time to 90% reduction (H1N1 virus): less than 30 minutes
- Time to 90% reduction (H1N1 virus; listed as DHP Gas): 22.9 min
- Time to 90% reduction (MS2 bacteriophage): <4 h
- Time to 90% reduction (Feline calicivirus): <2 h
- Time to 90% reduction (Streptococcus pyogenes): <4 h
- Time to 90% reduction (MRSA; soil load not stated): under 5 hours
- Time to 90% reduction (MRSA; with soil load, DHP gas 0.6 ppm, 0.5 × 10^5 per inch^2): 4.6 h
- Time to 90% reduction (MRSA; without soil load, DHP gas 0.6 ppm, 1 × 10^5 per inch^2): 2.6 h
- Reduction at 24 hours (C. difficile (spores)): 70.4% at 24
- Time to 90% reduction [2]: 7 h
- Time to 90% reduction (Enterococcus faecalis): <2 h
- Biological Change [3, 4]: turbidity
- Color Change within 24 hour incubation [3, 4]: light yellow
- Time of Change [3, 4]: 15 h
- Color Change within 24 hour incubation [3, 5]: very dark orange
- Time of Change [3, 5]: 22 h
- Color Change within 24 hour incubation ([3]; Log 2 spore strip, 166.5 hours exposure to DHP gas at about 0.3 ppm): may have changed
- Biological Change [3, 6]: no turbidity
- Color Change within 24 hour incubation [3, 6]: very dark orange
- Time of Change [3, 6]: 22 h
- Biological Change [3, 7]: no turbidity
- Color Change within 24 hour incubation [3, 7]: very light orange
- Time of Change [3, 7]: 17 h
- Biological Change [3, 8]: Heavy turbidity
- Color Change within 24 hour incubation [3, 8]: + Light orange
- Color Change within 24 hour incubation ([3]; Log3 spore strip, 42 hours exposure to DHP gas at about 0.3 ppm): +
- Color Change within 24 hour incubation ([3]; Log3 spore strip, 45.5 hours exposure to DHP gas at about 0.3 ppm): +
- Biological Change [3, 9]: Less turbidity
- Color Change within 24 hour incubation [3, 9]: + Dark orange
- Biological Change [3, 10]: Heavy turbidity
- Color Change within 24 hour incubation [3, 10]: +
- Color Change within 24 hour incubation ([3]; Log3 spore strip, 64.2 hours exposure to DHP gas at about 0.3 ppm): +
- Color Change within 24 hour incubation ([3]; Log3 spore strip, 64.5 hours exposure to DHP gas at about 0.3 ppm): +
- Biological Change [3, 11]: Almost no turbidity
- Color Change within 24 hour incubation [3, 11]: +
- Color Change within 24 hour incubation ([3]; Log3 spore strip, 70 hours exposure to DHP gas at about 0.3 ppm): +
- Color Change within 24 hour incubation ([3]; Log3 spore strip, 85.1 hours exposure to DHP gas at about 0.3 ppm): +
- Color Change within 24 hour incubation ([3]; Log3 spore strip, 89 hours exposure to DHP gas at about 0.3 ppm): +
- Color Change within 24 hour incubation [3, 12]: +
- Time of Change [3, 12]: 16 h and 22 to 24 h
- Biological Change [3, 13]: no turbidity
- Color Change within 24 hour incubation [3, 13]: very light orange
- Time of Change [3, 13]: 16.5 h
- Color Change within 24 hour incubation ([3]; Log 3 spore strip, 166.5 hours exposure to DHP gas at about 0.3 ppm): −
- Biological Change [3, 14]: no turbidity
- Color Change within 24 hour incubation [3, 14]: very dark orange
- Time of Change [3, 14]: 22 h
- Biological Change [3, 15]: almost no turbidity
- Color Change within 24 hour incubation [3, 15]: −
- Time of Change [3, 15]: 8 to 15 h and 15 h
- Time of Change ([3]; Log4 spore strip, 144 hours exposure to DHP gas at about 0.3 ppm): 17 h and 16.5 h
- Color Change within 24 hour incubation ([3]; Log 4 spore strip, 166.5 hours exposure to DHP gas at about 0.3 ppm): −
- Color Change within 24 hour incubation ([3]; Log4 spore strip, 168 hours exposure to DHP gas at about 0.3 ppm): −
- Color Change within 24 hour incubation [3, 16]: −
- Time of Change [3, 16]: 15 h
- Biological Change [3, 17]: no turbidity
- Color Change within 24 hour incubation [3, 17]: very dark orange
- Time of Change [3, 17]: 22 h
- Biological Change [3, 18]: no turbidity
- Time of Change [3, 18]: 14 h and 22 h
- Biological Change [3, 19]: no turbidity
- Color Change within 24 hour incubation [3, 19]: darker orange
- Time of Change [3, 19]: 17 h
